Reference: patent publication US10550100B2, “5-[3-[piperzin-1-yl]-3-oxo-propyl]-imidazolidine-2,4-dione derivatives as ADAMTS 4 and 5 inhibitors for treating E.G. osteoarthritis” (GALAPAGOS NV, priority 2016, dated 2020)
Like-named read-outs stand apart in the source and are kept apart here.

Tests used:
Format in all cases: biochemical
human MMP14 = human MMP14 (Homo sapiens (Human), UniProt P50281); experiment: hMMP14 390 MMP FRET Substrate I cleavage assay; settings: 60 min at room temperature, read-out: hMMP-14 potency IC50
Method: The basis for the assay is the cleavage of the substrate 390 MMP FRET Substrate I (Anaspec Cat# AS-27076) by human MMP14 (Biomol, Cat#SE-259).
(§1) The reaction is initiated by adding to the assay plate 390 MMP FRET Substrate I (10 μL, 2.5 μM) in the same buffer.
Finally, the fluorescence is read on the Envision (Perkin Elmer) after an incubation of 60 min at room temperature (Excitation 485 nm, Emission 530).

human ADAMTS6 = human ADAMTS6 (Homo sapiens (Human), UniProt Q9UKP5); experiment: hADAMTS-6 520 MMP FRET substrate XII cleavage assay; settings: 37° C. for 2 h, read-out: hADAMTS-6 potency IC50
Source text: The IC50 value for test compounds can be determined in a fluorescent based protease assay.
The basis for the assay is the cleavage of the substrate 520 MMP FRET substrate XII by human ADAMTS6.
The substrate contains sequence Arg-Pro-Lys-Pro-Tyr-Ala-Nva-Trp-Met-Lys (SEQ ID NO: 7) with attached a fluorescent probe and a quencher. Without ADAMTS6, the emission of the probe is quenched. If the substrate is cleaved by ADAMTS6, the emission of the probe is not quenched anymore. Inhibition of ADAMTS6 activity, will result in a decrease of the signal.
To perform the assay, 4 μL of a dilution series of compound in water, starting from 20 μM highest concentration, 1/5 dilution, is added to the wells. 2 ng ADAMTS6 enzyme is diluted in 25 mM Tris pH8.0, 0.05% CHAPS, 2.5 mM CaCl2 in a total volume of 26 μL (final concentration 0.73 nM). The reaction is started by addition of 10 μL of 1 μM 520 MMP FRET Substrate XII (final concentration, diluted in same buffer as described above) and the mixture is incubated at 37° C. for 2 h. […] After this incubation, cleavage of the substrate is measured using the Envision (Perkin Elmer, exc485/em530).

human ADAMTS-5 = human ADAMTS-5 (Homo sapiens (Human), UniProt Q9UNA0); experiment: hADAMTS-5 TBIS-1 cleavage assay, Protocol 3; settings: Protocol 3, TBIS-1 substrate, 90 min at 37° C.; read-out: hADAMTS-5 potency IC50
Method: The reaction is initiated by adding to the assay plate TBIS-1 (10 μL, 4.5 μM, Anaspec) in the same buffer.
Finally, the fluorescence is read on the Envision (Perkin Elmer) after an incubation of 90 min at 37° C. (Excitation 485 nm, emission 530).

human MMP13 [1] = target: T1, human MMP13 (Homo sapiens (Human), UniProt P45452); experiment: hMMP13 390 MMP FRET Substrate I cleavage assay, Protocol 2; settings: Protocol 2, 390 MMP FRET Substrate I; read-out: hMMP-13 potency IC50
Method: (§2) The basis for the assay is the cleavage of the substrate 390 MMP FRET Substrate I (Anaspec Cat# AS-27076) by human MMP13 (Chemicon, Cat#CC068).
(§3) Human MMP13 is preactivated by incubated the enzyme in the same buffer complemented with 1 mM freshly prepared p-Aminophenylmercuric acetate (AMPA) for 1 h at 37° C.
as §1
(§4) Finally, the fluorescence is read on the Envision (Perkin Elmer) after an incubation of 45 min at room temperature (Excitation 485 nm, Emission 530).

human TACE = human TACE (Homo sapiens (Human), UniProt P78536); experiment: hTACE 5FAM-[…]-5TAMRA cleavage assay; settings: 75 min at room temperature, read-out: hTACE potency IC50
Method: Finally, the fluorescence is read on the Envision (Perkin Elmer) after an incubation of 75 min at room temperature (Excitation 485 nm, Emission 530).

human MMP13 [2] = target: T1, human MMP13; experiment: hMMP13 390 MMP FRET Substrate I cleavage assay, Protocol 1; settings: Protocol 1, 390 MMP FRET Substrate I; read-out: hMMP-13 potency IC50
Method: as §2, §3, §1, §4

Chain of human TACE (P78536 215-671): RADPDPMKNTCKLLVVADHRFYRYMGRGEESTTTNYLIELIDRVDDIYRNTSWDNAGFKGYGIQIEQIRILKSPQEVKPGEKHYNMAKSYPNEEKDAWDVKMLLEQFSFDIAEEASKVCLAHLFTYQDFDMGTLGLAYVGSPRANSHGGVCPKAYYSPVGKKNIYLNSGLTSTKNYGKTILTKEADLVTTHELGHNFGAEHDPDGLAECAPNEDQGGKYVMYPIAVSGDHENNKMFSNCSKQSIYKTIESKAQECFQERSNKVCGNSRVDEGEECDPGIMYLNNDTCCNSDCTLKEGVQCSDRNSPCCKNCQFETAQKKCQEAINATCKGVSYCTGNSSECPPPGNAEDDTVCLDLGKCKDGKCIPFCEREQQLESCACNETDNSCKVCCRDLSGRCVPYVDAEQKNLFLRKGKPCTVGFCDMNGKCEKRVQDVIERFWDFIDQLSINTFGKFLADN
Chain of human ADAMTS-5 (Q9UNA0 262-930): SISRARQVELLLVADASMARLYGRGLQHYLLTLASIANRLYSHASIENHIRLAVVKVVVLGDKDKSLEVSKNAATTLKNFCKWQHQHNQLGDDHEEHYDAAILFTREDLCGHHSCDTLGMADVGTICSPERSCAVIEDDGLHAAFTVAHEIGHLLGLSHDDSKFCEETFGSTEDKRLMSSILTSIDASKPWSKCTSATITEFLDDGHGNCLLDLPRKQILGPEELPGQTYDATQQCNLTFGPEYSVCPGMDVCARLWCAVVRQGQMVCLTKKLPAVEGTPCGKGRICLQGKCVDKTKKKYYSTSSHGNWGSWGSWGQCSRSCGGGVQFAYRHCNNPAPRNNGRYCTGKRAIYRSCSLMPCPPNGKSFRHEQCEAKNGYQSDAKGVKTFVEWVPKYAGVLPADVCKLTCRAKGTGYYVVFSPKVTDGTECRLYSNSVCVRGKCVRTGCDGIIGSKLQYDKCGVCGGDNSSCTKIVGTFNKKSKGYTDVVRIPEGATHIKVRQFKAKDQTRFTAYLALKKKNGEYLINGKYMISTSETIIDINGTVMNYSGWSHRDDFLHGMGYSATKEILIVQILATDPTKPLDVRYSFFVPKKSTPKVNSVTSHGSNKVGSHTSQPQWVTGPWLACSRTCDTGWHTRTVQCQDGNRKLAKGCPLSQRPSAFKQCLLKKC
Chain of human ADAMTS6 (Q9UKP5 other isoform, or with tags, fused parts or gaps): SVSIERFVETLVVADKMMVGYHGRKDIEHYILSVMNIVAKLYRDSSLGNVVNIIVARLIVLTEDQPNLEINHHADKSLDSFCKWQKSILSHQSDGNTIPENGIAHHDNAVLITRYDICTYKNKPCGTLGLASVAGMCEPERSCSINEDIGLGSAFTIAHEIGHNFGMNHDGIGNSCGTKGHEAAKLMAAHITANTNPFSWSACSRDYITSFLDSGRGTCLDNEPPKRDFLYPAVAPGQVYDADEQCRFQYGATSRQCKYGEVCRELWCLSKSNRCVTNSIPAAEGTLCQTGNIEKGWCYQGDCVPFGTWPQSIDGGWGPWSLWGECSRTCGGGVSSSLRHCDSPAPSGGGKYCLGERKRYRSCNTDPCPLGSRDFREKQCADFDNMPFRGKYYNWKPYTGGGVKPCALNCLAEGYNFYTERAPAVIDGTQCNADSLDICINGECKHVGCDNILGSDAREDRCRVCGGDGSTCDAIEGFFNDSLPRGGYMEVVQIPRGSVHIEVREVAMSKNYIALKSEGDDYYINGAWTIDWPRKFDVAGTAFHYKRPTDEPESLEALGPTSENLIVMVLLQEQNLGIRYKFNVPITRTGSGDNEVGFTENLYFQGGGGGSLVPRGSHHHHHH

SMILES | IC50 (human MMP14) [nM] | IC50 (human ADAMTS6) [nM] | IC50 (human ADAMTS-5) [nM] | IC50 (human MMP13 [1]) [nM] | IC50 (human TACE; 5FAM-LAQAVRSSSRK-5TAMRA) [nM] | IC50 (human TACE; 5FAM-[…]-5TAMRA) [nM] | IC50 (human MMP13 [2]) [nM]
CCc1cc(C2CCN(C(=O)CC[C@@]3(C)NC(=O)NC3=O)CC2)cc(OC)c1Cl [Cpd 105, (5R)-5-[3-[4-(4-chloro-3-ethyl-5-methoxy-phenyl)-1-piperidyl]-3-oxo-propyl]-5-methyl-imidazolidine-2,4-dione] | > 100 | 0.001 to 25 | > 100 | > 100 |  | 25 to 50 | 
COC[C@]1(C[C@H](C)C(=O)N2CCC(c3ccc(Cl)cc3OC)CC2)NC(=O)NC1=O (stereo in doubt) [Cpd 108, 5-[3-[4-(4-chloro-2-methoxy-phenyl)-1-piperidyl]-2-methyl-3-oxo-propyl]-5-(methoxymethyl) imidazolidine-2,4-dione] | > 100 | 0.001 to 25 |  | > 100 |  | 50 to 100 | 
COc1cc(Cl)cc(C2CCN(C(=O)CC[C@H]3NC(=O)NC3=O)CC2)c1 [Cpd 67, (R)-5-(3-(4-(3-chloro-5-methoxyphenyl)piperidin-1-yl)-3-oxopropyl) imidazolidine-2,4-dione] |  |  | > 100 | > 100 |  |  | 
CC1(CCC(=O)N2CCC(c3ccc(Cl)c(F)c3)CC2)NC(=O)NC1=O (centres unmarked) [Cpd 54, 5-(3-(4-(4-chloro-3-fluorophenyl)piperidin-1-yl)-3-oxopropyl)-5-methyl-imidazolidine-2,4-dione] | > 100 | 50 to 100 | > 100 |  | > 100 |  | > 100
COc1cc(F)c(Cl)cc1C1CCN(C(=O)[C@@H](C)C[C@@]2(C)NC(=O)NC2=O)CC1 (stereo in doubt) [Cpd 111, 5-[3-[4-(5-chloro-4-fluoro-2-methoxy-phenyl)-1-piperidyl]-2-methyl-3-oxo-propyl]-5-methyl-imidazolidine-2,4-dione] | > 100 | 0.001 to 25 |  | > 100 |  | 50 to 100 | 
O=C1NC(=O)[C@@H](CCC(=O)N2CCC(c3ccc(Cl)c(F)c3)CC2)N1 [Cpd 51, (R)-5-(3-(4-(4-chloro-3-fluorophenyl)piperidin-1-yl)-3-oxopropyl) imidazolidine-2,4-dione] | > 100 | 50 to 100 | > 100 |  | > 100 |  | > 100
COc1cc(Cl)ccc1C1CCN(C(=O)CC[C@H]2NC(=O)NC2=O)CC1 [Cpd 42, (R)-5-(3-(4-(4-chloro-2-methoxy-phenyl)piperidin-1-yl)-3-oxopropyl) imidazolidine-2,4-dione] | > 100 | 25 to 50 | > 100 |  | > 100 |  | > 100
Cc1ccccc1C1CCN(C(=O)CCC2(C)NC(=O)NC2=O)CC1 (centres unmarked) [Cpd 57, 5-methyl-5-(3-oxo-3-(4-o-tolylpiperidin-1-yl)propyl) imidazolidine-2,4-dione] |  | > 100 | > 100 |  | > 100 |  | > 100
COc1cc(OC)cc(C2CCN(C(=O)CC[C@H]3NC(=O)NC3=O)CC2)c1 [Cpd 34, (R)-5-(3-(4-(3,5-dimethoxy-phenyl)piperidin-1-yl)-3-oxopropyl) imidazolidine-2,4-dione] |  | 50 to 100 | > 100 |  | > 100 |  | > 100
COc1cc(F)cc(C2CCN(C(=O)CCC3(C)NC(=O)NC3=O)CC2)c1 (centres unmarked) [Cpd 50, 5-(3-(4-(3-fluoro-5-methoxyphenyl)piperidin-1-yl)-3-oxopropyl)-5-methyl-imidazolidine-2,4-dione] |  | 50 to 100 | > 100 |  | > 100 |  | > 100
COC[C@]1(C[C@H](C)C(=O)N2CCC(c3cc(Cl)c(F)cc3OC)CC2)NC(=O)NC1=O (stereo in doubt) [Cpd 107, 5-[3-[4-(5-chloro-4-fluoro-2-methoxy-phenyl)-1-piperidyl]-2-methyl-3-oxo-propyl]-5-(methoxymethyl) imidazolidine-2,4-dione] | > 100 | 0.001 to 25 |  | > 100 |  | 50 to 100 | 
COC[C@]1(C[C@H](C)C(=O)N2CCC(c3cc(F)c(Cl)cc3OC)CC2)NC(=O)NC1=O (stereo in doubt) [Cpd 109, 5-[3-[4-(4-chloro-5-fluoro-2-methoxy-phenyl)-1-piperidyl]-2-methyl-3-oxo-propyl]-5-(methoxymethyl) imidazolidine-2,4-dione] | > 100 | 0.001 to 25 |  | > 100 |  | 50 to 100 | 

Second part, the compound after the results:

IC50 (human MMP14) [nM] | IC50 (human ADAMTS6) [nM] | IC50 (human ADAMTS-5) [nM] | IC50 (human MMP13 [1]) [nM] | IC50 (human TACE; 5FAM-LAQAVRSSSRK-5TAMRA) [nM] | IC50 (human TACE; 5FAM-[…]-5TAMRA) [nM] | IC50 (human MMP13 [2]) [nM] | SMILES
> 100 | 25 to 50 | > 100 | > 100 | > 100 |  |  | COc1cc(F)c(Cl)cc1C1CCN(C(=O)CC[C@@]2(C)NC(=O)NC2=O)CC1 [Cpd 101, (5R)-5-[3-[4-(5-chloro-4-fluoro-2-methoxy-phenyl)-1-piperidyl]-3-oxo-propyl]-5-methyl-imidazolidine-2,4-dione]
> 100 | 0.001 to 25 | > 100 | > 100 | > 100 |  |  | COc1cc(Cl)ccc1C1CCN(C(=O)CC[C@@]2(C)NC(=O)NC2=O)CC1 [Cpd 79, (5R)-5-[3-[4-(4-chloro-2-methoxy-phenyl)-1-piperidyl]-3-oxo-propyl]-5-methyl-imidazolidine-2,4-dione]
> 100 | 0.001 to 25 |  | > 100 | > 100 |  |  | COc1cc(Cl)ccc1C1CCN(C(=O)[C@@H](C)C[C@@]2(C)NC(=O)NC2=O)CC1 (stereo in doubt) [Cpd 97, 5-[3-[4-(4-chloro-2-methoxy-phenyl)-1-piperidyl]-2-methyl-3-oxo-propyl]-5-methyl-imidazolidine-2,4-dione]
> 100 | 0.001 to 25 |  | > 100 |  | 50 to 100 |  | COc1cc(C2CCN(C(=O)CC[C@@]3(C)NC(=O)NC3=O)CC2)ccc1Cl [Cpd 85, (5R)-5-[3-[4-(4-chloro-3-methoxy-phenyl)-1-piperidyl]-3-oxo-propyl]-5-methyl-imidazolidine-2,4-dione]
> 100 | 0.001 to 25 | > 100 |  | > 100 |  | > 100 | COc1cc(Cl)ccc1C1CCN(C(=O)CCC2(C)NC(=O)NC2=O)CC1 (centres unmarked) [Cpd 44, 5-(3-(4-(4-chloro-2-methoxyphenyl)piperidin-1-yl)-3-oxopropyl)-5-methyl-imidazolidine-2,4-dione]
 | 0.001 to 25 | > 100 | > 100 |  | 25 to 50 |  | COc1cc(Cl)cc(C2CCN(C(=O)CC[C@@]3(C)NC(=O)NC3=O)CC2)c1 [Cpd 66, (R)-5-(3-(4-(3-chloro-5-methoxyphenyl)piperidin-1-yl)-3-oxopropyl)-5-methyl-imidazolidine-2,4-dione]
> 100 | 50 to 100 | > 100 |  | > 100 |  | > 100 | COc1cc(C2CCN(C(=O)CCC3(C)NC(=O)NC3=O)CC2)ccc1F (centres unmarked) [Cpd 55, 5-(3-(4-(4-fluoro-3-methoxyphenyl)piperidin-1-yl)-3-oxopropyl)-5-methyl-imidazolidine-2,4-dione]
> 100 | 0.001 to 25 |  | > 100 |  | 50 to 100 |  | COc1cc(C2CCN(C(=O)CC[C@@]3(C)NC(=O)NC3=O)CC2)cc(F)c1Cl [Cpd 84, (5R)-5-[3-[4-(4-chloro-3-fluoro-5-methoxy-phenyl)-1-piperidyl]-3-oxo-propyl]-5-methyl-imidazolidine-2,4-dione]
